Laboratory results: PubChem BioAssay AID256 (DTP/NCI, 2004)
Several values for one entry are separate records, joined by “and”; a condition that tells them apart may be missing. Equal entries are not always repeated. Toxic doses and inconclusive results are not listed. How the source made its calls: active means survival T/C of 150% or more; inactive means T/C below 125% in these data.

Test system: CD2F1 mice, L1210 leukemia ip, survival T/C
Assay: NCI In Vivo Anticancer Drug Screen. Data for tumor model L1210 Leukemia (intraperitoneal) in CD2F1 (CDF1) mice
Conditions: higher = longer survival
Outline: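 Implant tumor; dose compound or vehicle; measure endpoint in both groups; report treated divided by control.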

[1] = endpoint: mean survival time, dose: 100.0 mg/kg/injection, schedule: Q04DX003 (ip), vehicle: saline with Tween-80
[2] = endpoint: mean survival time, dose: 200.0 mg/kg/injection, schedule: Q04DX003 (ip), vehicle: saline with Tween-80
[3] = endpoint: mean survival time, dose: 400.0 mg/kg/injection, schedule: Q04DX003 (ip), vehicle: saline with Tween-80
[4] = endpoint: mean survival time, dose: 100.0 mg/kg/injection, schedule: Q01DX009 (ip), vehicle: saline with Tween-80
[5] = endpoint: mean survival time, dose: 200.0 mg/kg/injection, schedule: Q01DX009 (ip), vehicle: saline with Tween-80
[6] = endpoint: mean survival time, dose: 400.0 mg/kg/injection, schedule: Q01DX009 (ip), vehicle: saline with Tween-80
[7] = endpoint: mean survival time, dose: 100.0 mg/kg/injection, schedule: Q01DX001 (ip), vehicle: saline
[8] = endpoint: mean survival time, dose: 25.0 mg/kg/injection, schedule: Q01DX009 (ip), vehicle: saline with Tween-80
[9] = endpoint: mean survival time, dose: 50.0 mg/kg/injection, schedule: Q01DX009 (ip), vehicle: saline with Tween-80

Measured: T/C

CCCCCCCCCCCC(=O)NC1CC(O[C@H]2C[C@](O)(C(=O)CO)Cc3c(O)c4c(c(O)c32)C(=O)c2c(OC)cccc2C4=O)OC(C)C1O (some centres not stated)
inactive: endpoint: mean survival time, dose: 1.5 mg/kg/injection, schedule: Q01DX009 (ip), vehicle: saline with Tween-80 108 % of control | endpoint: mean survival time, dose: 1.5 mg/kg/injection, schedule: Q01DX009 (ip), vehicle: saline 104 % of control | endpoint: mean survival time, dose: 3.0 mg/kg/injection, schedule: Q01DX009 (ip), vehicle: saline with Tween-80 98 % of control | endpoint: mean survival time, dose: 3.0 mg/kg/injection, schedule: Q01DX009 (ip), vehicle: saline 113 % of control | endpoint: mean survival time, dose: 6.0 mg/kg/injection, schedule: Q01DX009 (ip), vehicle: saline with Tween-80 105 % of control | endpoint: mean survival time, dose: 6.0 mg/kg/injection, schedule: Q01DX009 (ip), vehicle: saline 113 % of control | endpoint: mean survival time, dose: 6.25 mg/kg/injection, schedule: Q01DX009 (ip), vehicle: distilled water + Tween-80 105 % of control | endpoint: mean survival time, dose: 12.0 mg/kg/injection, schedule: Q01DX009 (ip), vehicle: saline with Tween-80 107 % of control | endpoint: mean survival time, dose: 12.5 mg/kg/injection, schedule: Q01DX009 (ip), vehicle: distilled water + Tween-80 105 % of control | endpoint: mean survival time, dose: 24.0 mg/kg/injection, schedule: Q01DX009 (ip), vehicle: saline with Tween-80 112 % of control | endpoint: mean survival time, dose: 24.0 mg/kg/injection, schedule: Q01DX009 (ip), vehicle: saline 116 % of control | endpoint: mean survival time, dose: 25.0 mg/kg/injection, schedule: Q01DX009 (ip), vehicle: distilled water + Tween-80 112 % of control | endpoint: mean survival time, dose: 48.0 mg/kg/injection, schedule: Q01DX009 (ip), vehicle: saline with Tween-80 97 % of control | endpoint: mean survival time, dose: 50.0 mg/kg/injection, schedule: Q01DX009 (ip), vehicle: distilled water + Tween-80 116 % of control

COc1ccc(C(=O)O)c([N+](=O)[O-])c1
inactive: [1] 98 % of control | [2] 98 % of control | [3] 98 % of control

COc1cc(OC)c(OC)cc1/C=C\c1ccnc2ccccc12
inactive: endpoint: mean survival time, dose: 12.5 mg/kg/injection, schedule: Q01DX009 (ip), vehicle: Klucel (hydroxypropylcellulose) (HPC) 96 % of control | endpoint: mean survival time, dose: 25.0 mg/kg/injection, schedule: Q01DX009 (ip), vehicle: Klucel (hydroxypropylcellulose) (HPC) 95 % of control | endpoint: mean survival time, dose: 50.0 mg/kg/injection, schedule: Q01DX009 (ip), vehicle: Klucel (hydroxypropylcellulose) (HPC) 98 % of control | endpoint: mean survival time, dose: 100.0 mg/kg/injection, schedule: Q01DX009 (ip), vehicle: Klucel (hydroxypropylcellulose) (HPC) 102 % of control | endpoint: mean survival time, dose: 200.0 mg/kg/injection, schedule: Q01DX009 (ip), vehicle: Klucel (hydroxypropylcellulose) (HPC) 112 % of control | endpoint: mean survival time, dose: 400.0 mg/kg/injection, schedule: Q01DX009 (ip), vehicle: Klucel (hydroxypropylcellulose) (HPC) 110 % of control

NC(=O)CSc1ccc(Cl)cc1
inactive: [4] 113 % of control | [5] 94 % of control | [6] 102 % of control

COc1ccc(OC)c(/C=C/c2cnnc3ccccc23)c1
inactive: endpoint: mean survival time, dose: 18.75 mg/kg/injection, schedule: Q04DX003 (ip), vehicle: Klucel (hydroxypropylcellulose) (HPC) 102 % of control | endpoint: mean survival time, dose: 37.5 mg/kg/injection, schedule: Q04DX003 (ip), vehicle: Klucel (hydroxypropylcellulose) (HPC) 104 % of control | endpoint: mean survival time, dose: 75.0 mg/kg/injection, schedule: Q04DX003 (ip), vehicle: Klucel (hydroxypropylcellulose) (HPC) 114 % of control | endpoint: mean survival time, dose: 150.0 mg/kg/injection, schedule: Q04DX003 (ip), vehicle: Klucel (hydroxypropylcellulose) (HPC) 104 % of control | endpoint: mean survival time, dose: 300.0 mg/kg/injection, schedule: Q04DX003 (ip), vehicle: Klucel (hydroxypropylcellulose) (HPC) 108 % of control

C=C(CC(=O)O)C(=O)O
inactive: [1] 93 % of control | [2] 98 % of control

O=C(O)C1(C(=O)O)CCCCC1.[NH-]CC1(C[NH-])CCCCC1.[Pt+2]
inactive: endpoint: mean survival time, dose: 30.0 mg/kg/injection, schedule: Q04DX003 (ip), vehicle: suspension in saline 118 % of control | endpoint: mean survival time, dose: 60.0 mg/kg/injection, schedule: Q04DX003 (ip), vehicle: suspension in saline 118 % of control

O=C(Nc1ccc(O)cc1)c1c(O)[nH]c(=S)[nH]c1=O
inactive: endpoint: median survival time, dose: 12.5 mg/kg/injection, schedule: Q01DX009 (ip), vehicle: saline with Tween-80 107 % of control | endpoint: median survival time, dose: 25.0 mg/kg/injection, schedule: Q01DX009 (ip), vehicle: saline with Tween-80 106 % of control | endpoint: median survival time, dose: 50.0 mg/kg/injection, schedule: Q01DX009 (ip), vehicle: saline with Tween-80 106 % of control | endpoint: median survival time, dose: 100.0 mg/kg/injection, schedule: Q01DX009 (ip), vehicle: saline with Tween-80 100 % of control

COc1ccccc1NC(=O)Oc1ccc(OCc2ccccc2)cc1
inactive: [4] 94 % of control | [1] 108 % of control | [5] 88 % of control | [2] 100 % of control | [6] 87 % of control | [3] 95 % of control

O=c1oc(-c2cccc(Cl)c2)nc2cc(Cl)ccc12
inactive: endpoint: mean survival time, dose: 100.0 mg/kg/injection, schedule: Q01DX001 (ip), vehicle: Klucel (hydroxypropylcellulose) (HPC) 98 % of control | endpoint: mean survival time, dose: 200.0 mg/kg/injection, schedule: Q01DX001 (ip), vehicle: Klucel (hydroxypropylcellulose) (HPC) 95 % of control | endpoint: mean survival time, dose: 400.0 mg/kg/injection, schedule: Q01DX001 (ip), vehicle: Klucel (hydroxypropylcellulose) (HPC) 94 % of control

CC(C)(C)N1CCc2cc3c(cc2C1)OCO3
inactive: endpoint: mean survival time, dose: 50.0 mg/kg/injection, schedule: Q01DX001 (ip), vehicle: saline 100 % of control | endpoint: mean survival time, dose: 75.0 mg/kg/injection, schedule: Q01DX001 (ip), vehicle: saline 103 % of control | [7] 96 % of control and 97 % of control

Cc1ccc(S(=O)(=O)NOCCCCONS(=O)(=O)c2ccc(C)cc2)cc1
inactive: endpoint: mean survival time, dose: 25.0 mg/kg/injection, schedule: Q04DX003 (ip), vehicle: saline with Tween-80 91 % of control | endpoint: mean survival time, dose: 50.0 mg/kg/injection, schedule: Q04DX003 (ip), vehicle: saline with Tween-80 89 % of control | [1] 89 % of control and 97 % of control

COc1cccc2c1C(=O)c1c(O)c3c(c(O)c1C2=O)C[C@@](O)(/C(C)=N\O)C[C@@H]3OC1CC(N)C(O)C(C)O1 (some centres not stated)
inactive: endpoint: mean survival time, dose: 3.13 mg/kg/injection, schedule: Q01DX009 (ip), vehicle: water 108 % of control | endpoint: mean survival time, dose: 6.25 mg/kg/injection, schedule: Q01DX009 (ip), vehicle: water 112 % of control | endpoint: mean survival time, dose: 25.0 mg/kg/injection, schedule: Q01DX009 (ip), vehicle: water 98 % of control

CC1=C(C)CN(c2ccccc2)SC1
inactive: [1] 98 % of control | [2] 98 % of control | [3] 98 % of control

C=CCNC(=O)C[n+]1cccc(C(=O)Nc2ccc(Cl)cc2)c1
inactive: [8] 97 % of control | [9] 96 % of control | [4] 102 % of control | [1] 107 % of control

O=C(Nc1ccc(Cl)c(C(F)(F)F)c1)Nc1cc(Cl)ccc1Sc1cc(Cl)c(Cl)cc1S(=O)(=O)O
inactive: endpoint: mean survival time, dose: 100.0 mg/kg/injection, schedule: Q01DX001 (ip), vehicle: saline sonified 102 % of control | [4] 100 % of control | endpoint: mean survival time, dose: 200.0 mg/kg/injection, schedule: Q01DX001 (ip), vehicle: saline sonified 93 % of control | [5] 105 % of control | endpoint: mean survival time, dose: 400.0 mg/kg/injection, schedule: Q01DX001 (ip), vehicle: saline sonified 93 % of control | [6] 102 % of control

CO[C@@]12[C@@H]3N[C@@H]3CN1C1=C(C(=O)C(Nc3ccc(O)cc3C)=C(C)C1=O)[C@@H]2COC(N)=O
inactive: endpoint: mean survival time, dose: 1.5 mg/kg/injection, schedule: Q01DX001 (ip), vehicle: water 119 % of control and 111 % of control | endpoint: mean survival time, dose: 3.0 mg/kg/injection, schedule: Q01DX001 (ip), vehicle: water 122 % of control and 111 % of control | endpoint: mean survival time, dose: 6.0 mg/kg/injection, schedule: Q01DX001 (ip), vehicle: water 120 % of control and 122 % of control | endpoint: mean survival time, dose: 12.0 mg/kg/injection, schedule: Q01DX001 (ip), vehicle: water 120 % of control

CCOC(=O)c1ccc(Nc2nnc(-c3c(OC)cc(OC)cc3OC)s2)cc1
inactive: [8] 88 % of control | [9] 88 % of control | [4] 89 % of control | [5] 88 % of control | [6] 88 % of control

O=C(NCCO)NCCO
inactive: endpoint: mean survival time, dose: 100.0 mg/kg/injection, schedule: Q01DX009 (ip), vehicle: saline sonified 110 % of control | endpoint: mean survival time, dose: 200.0 mg/kg/injection, schedule: Q01DX009 (ip), vehicle: saline sonified 104 % of control | endpoint: mean survival time, dose: 400.0 mg/kg/injection, schedule: Q01DX009 (ip), vehicle: saline sonified 110 % of control

CC(C)C[P+](c1ccccc1)(c1ccccc1)c1ccccc1
inactive: endpoint: mean survival time, dose: 75.0 mg/kg/injection, schedule: Q01DX001 (ip), vehicle: other 96 % of control

Cc1ccc(S(=O)(=O)NC(=O)c2ccccc2)cc1
inactive: [4] 95 % of control | [1] 98 % of control | [5] 98 % of control | [2] 102 % of control | [6] 95 % of control | [3] 101 % of control

CCC(=O)C(=O)c1ccccc1
inactive: [7] 101 % of control | endpoint: mean survival time, dose: 200.0 mg/kg/injection, schedule: Q01DX001 (ip), vehicle: saline 98 % of control | endpoint: mean survival time, dose: 400.0 mg/kg/injection, schedule: Q01DX001 (ip), vehicle: saline 101 % of control
